Experimental data published in patent US20230263809A1, “FOOD SUPPLEMENT FOR ALZHEIMER” (FOLIUM BIOSCIENCES EUROPE B.V., priority 2019, published 2023).

What was measured:
neurological behaviours = assay: Restoring neurological behaviours on uptake of phytosterols; type: in vivo; conditions: uptake of the phytosterol
[1] = Side effects on uptake of phytosterols (compared with synthetic LXRα/β activators); type: in vivo; conditions: side effects caused normally by synthetic LXRα/β activators
Amyloid-β deposits = conditions: in vivo; cited from earlier work
cholesterol absorption = conditions: by competing with cholesterol absorption; cited from earlier work

SMILES	restore neurological behaviours (neurological behaviours)	side effects [1]	removal of the toxic clumps of Amyloid-β deposits in the brain (Amyloid-β deposits)	cholesterol lowering effect (cholesterol absorption)
C=CC(O)(CC[C@@H](C)[C@H]1CC[C@H]2[C@@H]3CC=C4C[C@@H](O)CC[C@]4(C)[C@H]3CC[C@]12C)C(C)C (stereo partly drawn) [24(S)-Saringosterol]	help restore neurological behaviours	without registering any side effects		
CCCCCc1cc(O)c2c(c1)OC(C)(C)[C@@H]1CCC(C)=C[C@@H]21 [THC, Δ^9-tetrahydrocannabidiol]			promote the removal of the toxic clumps of Amyloid-β deposits	
C/C=C(\CC[C@@H](C)[C@H]1CC[C@H]2[C@@H]3CC=C4C[C@@H](O)CC[C@]4(C)[C@H]3CC[C@]12C)C(C)C [Fucosterol]	help restore neurological behaviours	without registering any side effects		shows a cholesterol lowering effect
